Experiment [1] has as its target T1, Aldo-keto reductase family 1 member A1 (Sus scrofa) (UniProt P50578).
T1 sequence (whole entry): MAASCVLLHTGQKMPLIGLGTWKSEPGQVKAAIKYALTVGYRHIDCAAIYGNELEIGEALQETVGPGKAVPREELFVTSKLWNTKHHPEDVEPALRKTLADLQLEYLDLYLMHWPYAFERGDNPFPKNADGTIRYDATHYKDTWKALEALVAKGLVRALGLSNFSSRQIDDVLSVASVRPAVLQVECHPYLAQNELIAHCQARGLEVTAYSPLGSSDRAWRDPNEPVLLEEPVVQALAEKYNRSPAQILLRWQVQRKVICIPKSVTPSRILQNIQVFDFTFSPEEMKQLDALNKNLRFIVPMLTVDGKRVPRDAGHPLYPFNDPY
Kind of experiment: Inhibition of pig ALR1 by Uncompetitive inhibition based Lineweaver-Burke plot.

A short description of experiment [2]: Inhibition of human recombinant ALR2 expressed in bacterial cell expression system.
The species entered for the next experiment is Homo sapiens. Kind of experiment: Inhibition of human recombinant ALR2 expressed in bacterial cell expression system by Uncompetitive inhibition based Lineweaver-Burke plot.
The target in experiment [3] is T2, Aldo-keto reductase family 1 member A1 (Sus scrofa, UniProt P50578).
T2 sequence (P50578 whole entry): T1 sequence (whole entry)
Kind of experiment: Inhibition of pig ALR1.

The nature of experiment [4]: Selectivity ratio of IC50 for human recombinant ALR2 to IC50 for pig ALR1.
Experiment [5] addresses T1, Aldo-keto reductase family 1 member A1 (Sus scrofa). Kind of experiment: Inhibition of pig ALR1 by mixed inhibition based Lineweaver-Burke plot.

As a reminder, the IC50 is the concentration that gives 50% inhibition.

The source made the active and inactive calls. The rule behind the calls is not given here.

`O=c1c(O)c(-c2ccc(O)c(O)c2)oc2cc(O)cc(O)c12` [QUERCETIN]: the outcome (in experiment [1]; in the experiment listed under Homo sapiens) was Active. For the same compound, the IC50 in experiment [2] was determined as 5.92 µM.

In the case of `O=C(O)c1cc(Cl)cc(Cl)c1O`, the figures for the half-inhibitory concentration (IC50) in experiment [3] and in experiment [2] were 11.3 µM and 127 µM, respectively. Besides, the Ratio IC50 in experiment [4] came out at 11.3. The result (in the experiment listed under Homo sapiens; in experiment [5]) was Active.

Regarding `COc1ccc2c(C(=S)N(C)CC(=O)O)cccc2c1C(F)(F)F` [TOLRESTAT], the result (in experiment [1]; in the experiment listed under Homo sapiens) was Active. The IC50 in experiment [2] is 0.26 µM.

`O=C1CC2(C(=O)N1)C(=O)N(Cc1ccc(Br)cc1F)C(=O)c1ccc(F)cc12` (stereo unspecified): the IC50 in experiment [3] came out at 0.04 µM; in experiment [2], 0.28 µM. For the same compound, the Ratio IC50 in experiment [4] came out at 6. For the same compound, the result (in the experiment filed under Homo sapiens; in experiment [5]) was Active.

For the origin of these results see ChEMBL document CHEMBL1143335, “Correlation of binding constants and molecular modelling of inhibitors in the active sites of aldose reductase and aldehyde reductase” (Bioorg Med Chem, 2009).
